Reference: patent publication US8030498B2, “Benzoylpyrazole compounds and herbicides containing them” (Ishihara Sangyo Kaisha, Ltd., priority 2005, dated 2011)

Experiments:
[1] = tested on: crabgrass (Digitaria sanguinalis L.); assay: Test Example 1: foliar treatment, growth inhibition rate, crabgrass; assay type: in vivo; settings: 31 g/ha active ingredient, visually observed 17th to 23rd day after application
How it was run: (§1)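 Visual scoring of growth inhibition, 0% (untreated) to 100% (complete kill), on days 17–23 following post-emergence spray of formulated compound in water (500 L/ha, 0.1 vol % spreader); plants treated at set leaf stages, e.g. corn 2.0–3.5, wheat 1.7–3.4.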

redroot pigweed = assay: Test Example 2: soil application on the day after sowing, growth inhibition rate, redroot pigweed; assay type: in vivo, Amaranthus retroflexus L.; settings: 250 g/ha active ingredient, observed on 19th to 24th day
How it was run: (§2)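 Upland soil pots sown with crop and weed seeds; next day wettable powder or emulsifiable concentrate at prescribed active-ingredient amounts, diluted to 500 L/ha water, sprayed onto soil. Growth inhibition scored visually 19–24 days later, 0 (as untreated) to 100% (complete kill).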

velvetleaf = assay: Test Example 2: soil application on the day after sowing, growth inhibition rate, velvetleaf; assay type: in vivo, Abutilon theophrasti MEDIC.; settings: 250 g/ha active ingredient, observed on 19th to 24th day
How it was run: as §2

prickly sida = assay: Test Example 2: soil application on the day after sowing, growth inhibition rate, prickly sida; assay type: in vivo, Sida spinosa L.; settings: 250 g/ha active ingredient, observed on 19th to 24th day
Text: (§3) Upland field soil was put into a 1/170,000 hectare pot, and seeds of various plants (barnyardgrass, crabgrass, greenfoxtail, redroot pigweed, prickly sida, velvetleaf, rice, wheat, corn and soybean) were sown. On the day after sowing, wettable powders or emulsifiable concentrates of the compounds of the present invention prepared in accordance with a conventional preparation method, were weighed so that the active ingredients became the prescribed amounts, and diluted with water in an amount corresponding to 500 liter per 1 hectare, followed by soil application with a small sprayer. On the 19th to 24th day after the application, the state of growth of the respective plants was visually observed, and the herbicidal effect was evaluated in accordance with a growth inhibition rate (%) of from 0 (equivalent to the non-treated area) to 100% (complete kill).

[2] = tested on: prickly sida (Sida spinosa L.); assay: Test Example 1: foliar treatment, growth inhibition rate, prickly sida; assay type: in vivo; settings: 31 g/ha active ingredient, visually observed 17th to 23rd day after application
How it was run: as §1

rice = assay: Test Example 2: soil application on the day after sowing, growth inhibition rate, rice; assay type: in vivo, Oryza sativa L.; settings: 250 g/ha active ingredient, observed on 19th to 24th day
Text: as §3

greenfoxtail = assay: Test Example 2: soil application on the day after sowing, growth inhibition rate, greenfoxtail; assay type: in vivo, Setaria viridis L.; settings: 250 g/ha active ingredient, observed on 19th to 24th day
Text: as §3

[3] = tested on: greenfoxtail (Setaria viridis L.); assay: Test Example 1: foliar treatment, growth inhibition rate, greenfoxtail; assay type: in vivo; settings: 31 g/ha active ingredient, visually observed 17th to 23rd day after application
How it was run: (§4)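 Visual growth inhibition rating, 0% (as untreated) to 100% (complete kill), taken 17–23 d after foliar spray. Compound was formulated as wettable powder or EC, diluted to 500 L/ha water with 0.1 vol % agricultural spreader, and applied to pot-grown seedlings of corn (2.0–3.5 leaf), greenfoxtail (1.0–3.0), rice (1.0–2.5) and wheat (1.7–3.4).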

corn (Zea mays L.) = assay: Test Example 1: foliar treatment, growth inhibition rate, corn; assay type: in vivo; settings: 31 g/ha active ingredient, visually observed 17th to 23rd day after application
How it was run: as §4

rice (Oryza sativa L.) = assay: Test Example 1: foliar treatment, growth inhibition rate, rice; assay type: in vivo; settings: 31 g/ha active ingredient, visually observed 17th to 23rd day after application
How it was run: as §4

corn = assay: Test Example 2: soil application on the day after sowing, growth inhibition rate, corn; assay type: in vivo, Zea mays L.; settings: 250 g/ha active ingredient, observed on 19th to 24th day
How it was run: as §2

[4] = tested on: barnyardgrass (Echinochloa crus-galli L.); assay: Test Example 1: foliar treatment, growth inhibition rate, barnyardgrass; assay type: in vivo; settings: 31 g/ha active ingredient, visually observed 17th to 23rd day after application
How it was run: (§5)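 Potted upland soil; compounds as wettable powders or emulsifiable concentrates diluted in water at 500 L/ha plus 0.1 vol % spreader, foliar-sprayed at defined leaf stages (rice 1.0–2.5, wheat 1.7–3.4, corn 2.0–3.5, greenfoxtail 1.0–3.0). Growth inhibition (0–100%) scored visually 17–23 days after application.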

wheat = assay: Test Example 2: soil application on the day after sowing, growth inhibition rate, wheat; assay type: in vivo, Triticum spp.; settings: 250 g/ha active ingredient, observed on 19th to 24th day
Text: as §3

soybean = assay: Test Example 2: soil application on the day after sowing, growth inhibition rate, soybean; assay type: in vivo, Glycine max Merr.; settings: 250 g/ha active ingredient, observed on 19th to 24th day
Text: as §3

[5] = tested on: velvetleaf (Abutilon theophrasti MEDIC.); assay: Test Example 1: foliar treatment, growth inhibition rate, velvetleaf; assay type: in vivo; settings: 31 g/ha active ingredient, visually observed 17th to 23rd day after application
How it was run: as §5

crabgrass = assay: Test Example 2: soil application on the day after sowing, growth inhibition rate, crabgrass; assay type: in vivo, Digitaria sanguinalis L.; settings: 250 g/ha active ingredient, observed on 19th to 24th day
How it was run: as §2

barnyardgrass = assay: Test Example 2: soil application on the day after sowing, growth inhibition rate, barnyardgrass; assay type: in vivo, Echinochloa crus-galli L.; settings: 250 g/ha active ingredient, observed on 19th to 24th day
Text: as §3

wheat (Triticum spp.) = assay: Test Example 1: foliar treatment, growth inhibition rate, wheat; assay type: in vivo; settings: 31 g/ha active ingredient, visually observed 17th to 23rd day after application
How it was run: as §4

[6] = tested on: soybean (Glycine max Merr.); assay: Test Example 1: foliar treatment, growth inhibition rate, soybean; assay type: in vivo; settings: 31 g/ha active ingredient, visually observed 17th to 23rd day after application
How it was run: as §1

[7] = tested on: redroot pigweed (Amaranthus retroflexus L.); assay: Test Example 1: foliar treatment, growth inhibition rate, redroot pigweed; assay type: in vivo; settings: 31 g/ha active ingredient, visually observed 17th to 23rd day after application
How it was run: as §1

Structure (SMILES) | Growth inhibition rate (%) Crabgrass [1] [%] | Growth inhibition rate (%) redroot pigweed (redroot pigweed) [%] | Growth inhibition rate (%) Velvetleaf (velvetleaf) [%] | Growth inhibition rate (%) Prickly sida (prickly sida) [%] | Growth inhibition rate (%) Prickly sida [2] [%] | Growth inhibition rate (%) Rice (rice) [%] | Growth inhibition rate (%) Greenfoxtail (greenfoxtail) [%] | Growth inhibition rate (%) Greenfoxtail [3] [%] | Growth inhibition rate (%) Corn (corn (Zea mays L.)) [%] | Growth inhibition rate (%) Rice (rice (Oryza sativa L.)) [%] | Growth inhibition rate (%) Corn (corn) [%] | Growth inhibition rate (%) Barnyardgrass [4] [%] | Growth inhibition rate (%) Wheat (wheat) [%] | Growth inhibition rate (%) Soybean (soybean) [%] | Growth inhibition rate (%) Velvetleaf [5] [%] | Growth inhibition rate (%) Crabgrass (crabgrass) [%] | Growth inhibition rate (%) Barnyardgrass (barnyardgrass) [%] | Growth inhibition rate (%) Wheat (wheat (Triticum spp.)) [%] | Growth inhibition rate (%) Soybean [6] [%] | Growth inhibition rate (%) redroot pigweed [7] [%] | other results
CCn1ncc(C(=O)c2ccc(S(C)(=O)=O)c(C(=O)OC)c2C)c1OC(=O)SC [compound 4] | 95 | 100 | 60 | 70 | 80 | 70 | 70 | 100 | 5 | 100 | 0 | 95 | 0 | 50 | 95 | 100 | 80 | 50 | 95 |  | 
CCSC(=O)Oc1c(C(=O)c2ccc(S(C)(=O)=O)c(COCC(F)(F)F)c2C)cnn1C [compound 69] | 98 | 100 | 70 | 70 | 70 | 70 | 50 | 95 | 50 | 80 | 0 | 95 | 0 |  | 95 | 95 | 70 | 0 | 98 | 85 | 
COC(=O)c1c(S(C)(=O)=O)ccc(C(=O)c2cnn(C)c2OC(=O)SC)c1Cl [compound 29] | 50 |  | 50 | 60 | 60 | 10 | 40 | 50 | 10 | 40 | 0 | 80 | 0 | 40 | 65 | 10 | 50 | 0 | 60 | 70 | 
CCSC(=O)Oc1c(C(=O)c2ccc(S(C)(=O)=O)c(OCC(OC)OC)c2C)cnn1C [Compound No. 209, 5-(ethylthio)carbonyloxy-1-methylpyrazol-4-yl 3-(2,2-dimethoxyethoxy)-2-methyl-4-(methylsulfonyl)phenyl ketone] |  |  |  |  | 90 |  |  |  |  |  |  |  |  |  |  |  |  |  | 100 | 98 | pest or weed control at 31 g/ha ([1]; Digitaria sanguinalis): 95%; inhibition at 250 g/ha (redroot pigweed; Amaranthus retroflexus): 95%; inhibition at 250 g/ha (velvetleaf; Abutilon theophrasti): 50%; inhibition at 250 g/ha (prickly sida; Sida spinosa): 30%; inhibition at 250 g/ha (rice; Oryza sativa): 90%; inhibition at 250 g/ha (greenfoxtail; Setaria viridis): 100%; pest or weed control at 31 g/ha ([3]; Setaria viridis): 98%; pest or weed control at 31 g/ha (corn (Zea mays L.); Zea mays): 0%; pest or weed control at 31 g/ha (rice (Oryza sativa L.); Oryza sativa): 95%; inhibition at 250 g/ha (corn; Zea mays): 0%; pest or weed control at 31 g/ha ([4]; Echinochloa crus-galli): 100%; inhibition at 250 g/ha (wheat; Triticum aestivum): 20%; pest or weed control at 31 g/ha ([5]; Abutilon theophrasti): 100%; inhibition at 250 g/ha (crabgrass; Digitaria sanguinalis): 95%; inhibition at 250 g/ha (barnyardgrass; Echinochloa crus-galli): 95%; pest or weed control at 31 g/ha (wheat (Triticum spp.); Triticum): 0%
